Laboratory results reported in US8932558B2, “Multi-subunit biological complexes for treatment of plaque-associated diseases” (Plaxgen Inc, priority 2007, dated 2015).

Columns and labels:
Assay type in all cases: biochemical
[1] = system: thrombus generated from the in vitro assembled plaques complexes; assay: Thrombolytic assay with PLG cascade proteins; settings: thrombus from cholesterol, lipids, CP and CO complexes
Description: To examine this, both PLG and PLG activators are used to target these clots. Thrombolytic assays are carried out in 100 μl reaction containing thrombus, generated from 100 μl of aggregates or plaque complexes, 1 μg of PLG and 20 ng of u-PA or t-PA in PBS buffer. The reactions are incubated at 37° C. for 1 hr and after every 15 min the tubes are gently tapped to mix the contents. After 1 hr incubation, 1 ml of PBS is added to all the tubes and the samples are visually examined for dissolution of the thrombus.
The thrombus generated from the cholesterol, lipids, CP, and CO complexes are incubated separately with PLG, u-PA and t-PA to examine whether these proteins individually could dissolve the clots.
This could be due to the inhibition of u-PA by the PAI-1 thereby preventing the activation of the PLG. In the next experiment, the aggregates of CP-Cholesterol, CP-Lipids, CP-Cholesterol-Lipids, Cholesterol-Lipids, CO-Cholesterol and CO-Lipids are individually used in CPA for five cycles to assemble complexes followed by their thrombus generation.
The example depicted in FIG. 18 illustrates the dissolution of thrombi by PLG and u-PA. […] Both the clots and the dissolved complexes are further examined under microscope to confirm the visual examination (FIGS. 18a, b, c and d). The thrombus formed in the urine is also dissolved by the action of PLG and u-PA.

[2] = system: iron loaded abeta42 aggregates mixed with CE proteins; assay: Proteolysis of amyloid plaque complexes assembled on iron loaded abeta42 aggregates; settings: 20 ng
Description: This example illustrates the use of the invention to evaluate the proteolytic degradation of the amyloid complexes. For example, iron loaded abeta42 aggregates are mixed with CE proteins, and the resulting template complexes are treated with five different serine proteases. More specifically, nine independent reactions are carried out with each containing 5.0 μg of the iron-loaded aggregates of abeta42 and 6.0 μg of the CE proteins. After incubation and washing, the complexes are suspended in 50 μl of PBS. The nine complexes are sub-divided into two groups, with six individual complexes comprising Group I and three complexes comprising Group II. In order to interrogate the role of the plasminogen (PLG) activation system, which is implicated in the catabolism of amyloid peptides as well as the pathobiology of amyloid diseases (Melchor J P et al, 2003; Van Nostrand W E et al, 1999; Kranenburg O, 2005), the Group II complexes are subjected to another cycle of binding with both PLG (0.5 μg) and BSA (0.5 μg) proteins. After binding and washing, the PLG and BSA bound plaques complexes are suspended in 50 μl of PBS.
For proteolysis analysis, five of the six Group I template complexes are incubated with 20 ng of each protease (plasnin, chymotrypsin, trypsin, proteinase K and urokinase). The remaining complex is used as a control without protease treatment. Among three complexes of the Group II containing PLG attached to them, one is treated with u-PA (20 ng), a second is treated with t-PA (20 ng) and the third complex is used as a control without protease treatment. All these plaque complexes are incubated at 37° C. for 1 hr and after every 15 min, the tubes are gently tapped in order to encourage mixing. After washing, both the proteases-treated and control plaque complexes are suspended in 20 μl PBS. The complexes are boiled for 10 min with sample solubilizing buffer and loaded in to 4-20% gradient SDS-PAGE. Further, the gels are processed for silver staining and the results are documented for further analysis.

[3] = molecular target: T1, pre-assembled amyloid plaque like complexes (iron-loaded abeta42 templates) (Homo sapiens, UniProt P00747); assay: Dissolution of pre-assembled amyloid plaque like complexes; settings: 20 ng, 37° C., 1 hr
T1 construct: Lys-Plasminogen (PLG); purchased Enzyme Research Laboratories (IN, USA)
T1 sequence (P00747 97-810, one chain of several): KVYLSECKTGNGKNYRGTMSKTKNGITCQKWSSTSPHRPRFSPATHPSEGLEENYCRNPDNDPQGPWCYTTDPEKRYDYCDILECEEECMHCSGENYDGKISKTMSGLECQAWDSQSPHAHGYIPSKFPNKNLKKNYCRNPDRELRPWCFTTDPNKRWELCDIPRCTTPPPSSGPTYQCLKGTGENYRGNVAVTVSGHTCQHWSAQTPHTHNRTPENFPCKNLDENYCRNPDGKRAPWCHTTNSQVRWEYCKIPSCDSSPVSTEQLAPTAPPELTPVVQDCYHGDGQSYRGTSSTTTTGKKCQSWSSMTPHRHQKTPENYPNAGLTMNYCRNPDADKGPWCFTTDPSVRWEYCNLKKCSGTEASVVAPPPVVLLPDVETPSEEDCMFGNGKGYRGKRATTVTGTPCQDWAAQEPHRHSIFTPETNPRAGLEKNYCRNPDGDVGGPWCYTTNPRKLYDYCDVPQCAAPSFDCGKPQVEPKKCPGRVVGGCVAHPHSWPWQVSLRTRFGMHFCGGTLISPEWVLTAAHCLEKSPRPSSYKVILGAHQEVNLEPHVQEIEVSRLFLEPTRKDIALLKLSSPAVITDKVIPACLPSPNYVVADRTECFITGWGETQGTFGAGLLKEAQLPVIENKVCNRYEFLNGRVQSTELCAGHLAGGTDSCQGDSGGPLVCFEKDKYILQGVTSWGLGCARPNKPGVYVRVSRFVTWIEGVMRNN
Description: In order to identify lead compounds able to dissolve the pre-assembled amyloid plaque like complexes, the preceding experiments are repeated to assemble complexes in three cycles using the iron-loaded abeta42 templates. Then, 50 μl of the resulting complexes is incubated with test compound/s (50 ng to 1 μg) for 1 hr at 37° C. followed by washing and analysis of the complexes for their dissolution. For example, 50 μl of the pre-assembled complexes is mixed with u-PA or t-PA (20 ng) at 37° C. for 1 hr followed by washing and protein estimation or gel analysis of the resultant complexes. […] This approach is also useful to optimize u-PA (PGN54) molecule for use as a therapeutic lead to treat patients with advanced amyloid diseases such as Alzheimer. Reducing the amyloid plaque burden or plaque build-up in the cerebral arteries would greatly improve or reverse the pathological symptoms associated with the amyloid diseases. In addition, to test the hypothesis of amyloid plaque burden reduction as an effective strategy, optimized u-PA or other plasminogen activators are used in the animal models of Alzheimer's disease.

[4] = molecular target: T2, iron-loaded abeta40 templates plaque complex (Homo sapiens, UniProt P00747); assay: Proteolysis of plaque complexes assembled on iron-loaded abeta40 templates
T2 construct: Lys-Plasminogen (PLG); purchased Enzyme Research Laboratories (IN, USA)
T2 sequence (P00747 97-810, one chain of several): as above
Description: In order to verify the preceding results, such experiments are repeated using iron-loaded abeta40 templates for plaque complex formation. Proteins binding to the abeta40 templates appear to be cleared when they are treated with the same proteases.

Activation of PLG-bound complex [4]: activate the PLG-bound complex
Substance: t-PA: tissue-type plasminogen activator
Dissolution of thrombus, protein incubated separately [1]: did not show any dissolution | Activation of PLG on PLG/BSA-attached complexes [2]: the inactive PLG is converted into active plasmin | Protein concentration of pre-assembled complexes after incubation [3]: show reduction in the protein concentration
